Measured values reported in patent US10183915B2, “Axially chiral isomers, and preparation methods therefor and pharmaceutical uses thereof” (MEDSHINE DISCOVERY INC., priority 2015, dated 2019).
Read-outs that look alike come from different tables or passages of the source.

Legend:
[1] = In vivo pharmacokinetic study in male Sprague-Dawley rats (IV and PO); parameters: species or system Sprague-Dawley rat; conditions: for MRT inf: read-out: MRT0-inf
Description: Test 6: In Vivo Pharmacokinetic Study of the Test Compounds in Rats
To study the pharmacokinetic behavior of the compounds in rats and to evaluate their pharmacokinetic characteristics, their concentrations in plasma were determined by LC/MS/MS.
Appropriate amount of sample was added to a certain amount of pure water, the pH were adjusted to 7-8, to prepare to be 1 mg/mL (filtered and clarified) and 2 mg/mL (with a few particles of suspension) for IV and PO administration. • 2.4 Administration • 18 male SD rats were randomly assigned to 6 treatment groups, 3 rats in each group. Male rats were administrated IV and PO respectively after fasting overnight. The IV dosage was 2 mg/kg, the dose volume was 2 mL/kg, the PO dosage was 10 mg/kg, and the dose volume was 5 mL/kg. 3. Experimental Procedure
For IV group, 250 μL blood samples were collected before administration, and 0.083, 0.25, 0.5, 1, 2, 4, 8, 24 hours after administration, and placed in K2-EDTA anticoagulant tube, centrifuged at 3000 rpm for 15 minutes, plasma was separated, stored at −80° C. For PO Group, blood samples were collected before administration, and 0.25, 0.5, 1, 2, 4, 8, 24 hours after administration, and the other operations were the same as group IV. The content of the test compounds in the plasma of rats after administration of IV and PO were determined by LC/MS/MS method. The linear range of the assay was 6.00-18000 nM, and the lower limit of quantification was 6 nM; the plasma samples were analyzed by pretreatment with precipitated proteins.

[2] = Stability of compounds in ethanol solutions (heated; SFC chiral purity); type: physicochemical; conditions: for Enantiomer Excess of Compound: ethanol solution
Text: Test 3: Evaluation of the Stability of Compounds in Ethanol Solutions.
(§1) An appropriate amount of test compound was accurately weighed, added into ethanol to obtain an ethanol solution. The ethanol solution of the compound was stirred in a heated oil bath. At the end of the test, the purity and chiral purity of the compound was detected by high performance liquid chromatography (HPLC) or LC-MS (LCMS) and supercritical fluid chromatography (SFC).

[3] = Stability of compounds in SD rat plasma; type: in vitro ADME; conditions: for Recovery (% remaining): SD rat plasma, 2 μM, 37° C.
Description: (§2) Test 5: Evaluation of the Stability of Compounds in Rat Plasma and Human Plasma
(§3) 2. Experimental Procedures and Methods • 2.1 Prior to the experiment, the frozen plasma stored at −40° C. was thawed at room temperature and incubated in a 37° C. water bath for 5-10 min; centrifuged at 4000 rpm for 5 min, to remove impurities and lipids in the plasma. Measured the value of pH, if required, adjusted it to 7.4±0.1. • 2.2 Prepared 400 μM intermediate solution by diluting 4 μL of the working solution (10 mM) with 96 μL DMSO. • 2.3 Preparation of incubation samples: Remove 3 μL of intermediate solution (400 μM) to mix with 597 μL of blank plasma to achieve 2 μM of final concentration. Incubate each time point samples (0 min, 10 min, 30 min, 60 min, 120 min, in duplicate) at 37° C. in water bath. • 2.4 An aliquot of 100 μL samples of the final spiked plasma for each time point were removed to sample collected plates, added 400 μL of stop solution (200 ng/mL Tolbutamide plus 20 ng/mL Buspirone in 50% ACN/MeOH) to precipitate protein. Mixed thoroughly. • 2.5 Centrifuged each plate at 4,000 rpm for 20 min. Transfered an aliquot of supernatant (100 μL) from each well to sample plate and mixed with 200 μL ultra pure water. Shaked the plate at 800 rpm for about 10 min before submitting to LC-MS/MS analysis. 3. Experimental Data Analysis
(§4) The ratio of the peak area to the internal standard peak area was used to assess the decrease of the test compound to be measured. The % remaining of the test compound after incubation in plasma was calculated using following equation: % Remaining=100×(PAR at appointed incubation time/PAR at T0 time)
(§5) wherein PAR is the peak area ratio of analyte versus internal standard (IS)
(§6) The appointed incubation time points are: 0 min, 10 min, 30 min, 60 min, 120 min; T0: Samples prior to incubation.

[4] = Stability of compounds in human plasma; type: in vitro ADME
Description: as §2, §3, §4, §5, §6

[5] = Stability of compounds in DMSO solutions (heated; SFC chiral purity); type: physicochemical; conditions: for Enantiomer Excess of Compound: DMSO solution
Description: Example 4: Evaluation of the Stability of Compounds in DMSO Solutions
as §1, with “DMSO” for “ethanol”, “a DMSO” for “an ethanol”, “test, a sample amount of the DMSO solution was diluted with ethanol and” for “test,”

[6] = Stability of solid compounds in ambient temperature (15° C., nitrogen cabinet, dark; SFC chiral purity); type: physicochemical; conditions: for Enantiomer Excess of the Compound: solid
Description: Test 2: Evaluation of the Stability of Solid Compounds in Ambient Temperature.
20 mg of test compound was placed into 5 mL brown transparent sealed container with stopper and stoned in the nitrogen cabinet (15° C.) in the dark. After the preset storage time, about 2 mg of test compound was accurately weighed, added into ethanol to prepare 1 mg/mL ethanol solution. The purity and chiral purity of the compound was detected by high performance liquid chromatography (HPLC) or LC-MS (LCMS) and supercritical fluid chromatography (SFC).

[7] = male SD rats, IV 2 mpk, 2 mg/kg
[8] = male, Sprague-Dawley, rat, plasma, iv, 2 mg/kg, male SD rats, IV 2 mpk
[9] = male, Sprague-Dawley, rat, plasma, po, 10 mg/kg, male SD rats, PO 10 mpk

For `O=C(O)CSc1nnc(Br)n1-c1ccc(C2CC2)c2ccccc12` (single isomer, unassigned) [(+)-Lesinurad], the “Transformation of the atropisomer in vivo” value ([1]; SD rats, IV and PO) was “no transformation was observed”, the AUC0-inf [1, 7] was 15.03902 ± 1.0268 µM·h and the Cl [1, 7] was 5.50 ± 0.36 mL/min/kg. The Bioavailability ([1]; male SD rats, PO 10 mpk vs IV 2 mpk) was 44.65%, the AUC0-inf ([1]; male SD rats, PO 10 mpk, 10 mg/kg) was 32.68473 ± 13.43235 µM·h and the C0 [1, 8] was 11.5 ± 2.72 µM. The half-life [1, 8] was 1.61 ± 0.11 h, the MRT inf [1, 8] was 2.08 ± 0.08 h and the Vd ([1]; male, Sprague-Dawley, rat, plasma, iv, 2 mg/kg, male SD rats, IV 2 mpk, read-out: Vdss) was 0.69 ± 0.03 L/kg. The Cmax [1, 9] was 7.76 ± 5.15 µM, the half-life [1, 9] was 2.25 ± 0.02 h and the MRT inf [1, 9] was 4.09 ± 0.87 h. For the same compound, the Tmax ([1]; male, Sprague-Dawley, rat, plasma, po, 10 mg/kg, male SD rats, PO 10 mpk, read-out: Tmax) was 3 ± 1.73 h, the “Enantiomer Excess of Compound” value ([2]; 37° C., 3 days) was “Unchanged” and the “Enantiomer Excess of Compound” value ([2]; 70° C., 3 days) was “Unchanged”. The “Enantiomer Excess of Compound” value ([2]; heating time 0 day) was 95.9%, the “Stability in ethanol solutions (SFC purity)” value ([2]; heating to 37° C. and up to 70° C.) was “very stable” and the “Stability after co-incubation with SD-rat plasma” value ([3]; 2 hours) was “very stable”. The “Recovery (% remaining)” value ([3]; 30 min) was 100.3%, the “Recovery (% remaining)” value ([3]; 60 min) was 99.7% and the “Recovery (% remaining)” value ([3]; 120 min) was 101.2%. For the same compound, the “Stability after co-incubation with human plasma” value ([4]; 2 hours) was “very stable”, the “Recovery (% remaining)” value ([4]; human plasma, 2 μM, 37° C., 120 min) was 100.4% and the recovery at 0 min, 2 μM ([4]; human, plasma, pH 7.4, human plasma, 2 μM, 37° C., 0 min, read-out: Recovery (% remaining)) was 100%. It also gave a recovery at 10 min, 2 μM ([4]; human, plasma, pH 7.4, human plasma, 2 μM, 37° C., 10 min, read-out: Recovery (% remaining)) of 100%, a recovery at 30 min, 2 μM ([4]; human, plasma, pH 7.4, human plasma, 2 μM, 37° C., 30 min, read-out: Recovery (% remaining)) of 99.5% and a recovery at 60 min, 2 μM ([4]; human, plasma, pH 7.4, human plasma, 2 μM, 37° C., 60 min, read-out: Recovery (% remaining)) of 99.4%. The “Enantiomer Excess of Compound” value ([5]; 80° C., 0 h) was 95.9%, the “Enantiomer Excess of Compound” value ([5]; 80° C., 2 × 24 h) was “Unchanged” and the “Enantiomer Excess of Compound” value ([5]; 80° C., 4 × 24 h) was “Unchanged”. The “Enantiomer Excess of Compound” value ([5]; 80° C., 2 h) was “Unchanged”, the “Enantiomer Excess of Compound” value ([5]; 80° C., 4 h) was “Unchanged” and the “Enantiomer Excess of Compound” value ([5]; 80° C., 8 h) was “Unchanged”. For the same compound, the “Enantiomer Excess of Compound” value ([5]; 80° C., 24 h) was “Unchanged”, the “Enantiomer Excess of Compound” value ([5]; 120° C., 0 h) was 95.9% and the “Enantiomer Excess of Compound” value ([5]; 120° C., 2 × 24 h) was “Unchanged”. For the same compound, the “Enantiomer Excess of Compound” value ([5]; 120° C., 4 × 24 h) was “Unchanged”, the “Enantiomer Excess of Compound” value ([5]; 120° C., 2 h) was “Unchanged” and the “Enantiomer Excess of Compound” value ([5]; 120° C., 4 h) was “Unchanged”. For the same compound, the “Enantiomer Excess of Compound” value ([5]; 120° C., 8 h) was “Unchanged”, the “Enantiomer Excess of Compound” value ([5]; 120° C., 24 h) was “Unchanged” and the “Enantiomer Excess of Compound” value ([5]; 160° C., 0 h) was 95.9%. The “Enantiomer Excess of Compound” value ([5]; 160° C., 8 h) was “Unchanged”, the “Stability in DMSO solutions (SFC purity)” value ([5]; heating to 80° C., 120° C. and up to 160° C.) was “very stable” and the “Enantiomer Excess of the Compound” value ([6]; storing time 0 day) was 95.9%. The “Enantiomer Excess of the Compound” value ([6]; storing time >80 days) was “Unchanged” and the “Stability of the solid powder (SFC purity)” value ([6]; storing over 80 days) was “very stable”.
